How the values were obtained:
DYRK1A kinase = DYRK1A kinase (Homo sapiens, UniProt Q13627); conditions: cited from earlier work
U2OS cells [1] = experiment: UV-induced apoptosis in quiescent U2OS cells (Annexin V / 7-AAD FACS); assay type: cell-based, human; conditions: UV 2 mJ·cm-2; 24 h after UV; harmine 10 μM, INDY 25 μM
Procedure: (§1) U2OS were cultured in DMEM, high glucose GlutaMAX Supplement, Pyruvate (Thermo Fisher Scientific, 31966047) with 10% fetal bovine serum (FBS; Biochrom GmbH, S0615) and 1% Penicillin-Streptomycin (Thermo Fisher Scientific, 15140112). Cells were kept at 37° C. in a 5% CO2 incubator (Binder). Cell dissociation from the plates was performed with Accutase (Sigma, A6964). Cells were cultivated in FBS-free medium for 48 hours before genotoxic treatment were applied. […] Before the genotoxic treatment, cells were washed with FBS-free medium. For the UV treatment, medium was removed from the plates and cells were irradiated using 254 nm UV-C light Phillips UV6 bulbs. The MMS treatment was performed by adding MMS at 2 mM for 2 hours, followed by 3 washes with FBS-free medium. Quantification via FACS of cell death and apoptosis was performed 24 hours after genotoxic treatment.
(§2) Collected cells were incubated in Annexin V Binding buffer (BioLegend, 422201) with Pacific Blue Annexin V (BioLegend, 640917) and 7-AAD (Thermo Fisher Scientific, 00699350) at 4° C. for 15 minutes. Cells were measured using a MACSQuant VYB (Miltenyi Biotec) and analyzed using FlowJo (BD).

DREAM target genes = experiment: RNA-seq of quiescent (serum-starved) U2OS cells treated with DYRK1A inhibitors; assay type: cell-based, human; conditions: 24 h treatment, harmine 10 μM, INDY 25 μM; for number of the 67 DNA repair genes bound by DREAM that were upregulated: FDR<0.01
Procedure: as §1
For the qPCRs and RNA-seq on L1 worms, around 10.000 (qPCR) or 40.000 (RNA-seq) bleach-synchronized L1 worms in triplicates (qPCR) or quadruplicates (RNA-seq) per strain and condition were placed in seeded NGM plates and left at 20° C. for 3 hours. Posteriorly, they were irradiated with a 310 nm UV-B light Philips UV6 bulb in a Waldmann UV236B irradiation device or left unirradiated, and left for 6 more hours to allow the DNA damage related transcriptional changes to be taking place. After this, worms were collected, washed three times with M9 buffer, and the pellet was placed in a tube containing 1 ml of TRIzol™ (Invitrogen, 15596018) and 1 mm zirconia/silica beads (Biospec Products, 11079110z). To extract the RNA, worms were first disrupted with a Precellys24 (Bertin Instruments, P000669-PR240-A), and then the RNA isolation was performed by using the RNeasy Mini Kit (QIAGEN, 74106) following the manufacturer's specifications, except for the use of 1-bromo-3-chloropropane (Sigma, B9673) instead of chloroform. The RNA was quantified using NanoDrop™ 8000 (ThermoFisher, ND-8000-GL). […] Cells were disrupted with RLT buffer and homogenized with QIAshredder spin columns (QIAGEN, 79656).
The human RNA-seq data were processed with Salmon-1.1 (Patro et al., 2017) against a decoy-aware transcriptome (gencode.v37 transcripts and the GRCh38.primary_assembly genome) with the following parameter: --validateMappings -gcBias -seqBias. The output was imported and summarized to the gene-level with tximport (1.14.2) (Soneson, Love and Robinson, 2016) and differential gene analysis was done with edgeR (3.28.1) (Robinson, McCarthy and Smyth, 2009).

U2OS cells [2] = experiment: DNA repair kinetics in U2OS cells, γH2AX antibody staining after UV; assay type: cell-based, human; conditions: quiescent cells, hours after UV; harmine 10 μM, INDY 25 μM
Procedure: Before the genotoxic treatment, cells are washed with FBS-free medium. For the UV treatment, medium is removed from the plates and cells are irradiated using 254 nm UV-C light Phillips UV6 bulbs. The MMS treatment is performed, e.g., by adding MMS at 2 mM for 2 hours, followed by 3 washes with FBS-free medium. Cells are fixed in a solution comprising PFA on HistoBond+ Adhesion Microscope Slides (Marienfeld, 0810461). To estimate the total amount of DNA damage per cell, the fixed cells are incubated overnight at 4° C. in PBS comprising anti-γH2AX antibody (Mouse anti-phospho-Histone H2A.X (Ser139), clone JBW301, Millipore, Cat #: 05-636), then washed 5 times 10 minutes in a suitable buffer at RT, prior to incubation for at least two hours with a secondary antibody. Finally, the slides are washed another 5 times 10 minutes in PBS-T and dried overnight. The next morning, slides are sealed with a cover slip.

U2OS cells [3] = experiment: MMS-induced apoptosis in quiescent U2OS cells (Annexin V / 7-AAD FACS); assay type: cell-based, human; conditions: MMS 2 mM for 2 hours; 24 h after treatment; harmine 10 μM, INDY 25 μM
Procedure: as §1, §2

[4] = test system: Podocyte-specific Ercc1 knockout mice; experiment: Kidney function (proteinuria) in podocyte-specific Ercc1 knockout mice; assay type: in vivo, mouse; conditions: 10 mg/kg/day for 4 weeks from 3 weeks of age; urine 8 and 11 days afterwards
Procedure: Proteinuria as endpoint for kidney dysfunction was assessed by Coomassie brilliant blue staining in urine 8 days (FIG. 7A) and 11 days (FIG. 7B) afterwards.
Proteinuria as endpoint for kidney dysfunction was assessed in urine 8 days and 11 days afterwards by assessing overall protein levels in urine samples via Coomassie brilliant blue staining after electrophoretic separation in a polyacrylamide gel.

Ercc1−/− mice = experiment: Photoreceptor cell loss in Ercc1 knockout mouse model of premature aging (TUNEL staining of retina); assay type: in vivo; conditions: 10 mg/kg i.p. 3 times/week from P3, retina at P15
Excerpt: Mice were sacrificed at postnatal day P15 for retina tissue isolation. Tissues were embedded in optimal cutting temperature (OCT) compound, cryosectioned and stained using in situ cell detection kit (TUNEL staining) (11684817910, Roche).

[5] = molecular target: T1, monoamine oxidase A (MAOA) (Homo sapiens, UniProt P21397); conditions: cited from earlier work
T1 sequence (P21397 1-527): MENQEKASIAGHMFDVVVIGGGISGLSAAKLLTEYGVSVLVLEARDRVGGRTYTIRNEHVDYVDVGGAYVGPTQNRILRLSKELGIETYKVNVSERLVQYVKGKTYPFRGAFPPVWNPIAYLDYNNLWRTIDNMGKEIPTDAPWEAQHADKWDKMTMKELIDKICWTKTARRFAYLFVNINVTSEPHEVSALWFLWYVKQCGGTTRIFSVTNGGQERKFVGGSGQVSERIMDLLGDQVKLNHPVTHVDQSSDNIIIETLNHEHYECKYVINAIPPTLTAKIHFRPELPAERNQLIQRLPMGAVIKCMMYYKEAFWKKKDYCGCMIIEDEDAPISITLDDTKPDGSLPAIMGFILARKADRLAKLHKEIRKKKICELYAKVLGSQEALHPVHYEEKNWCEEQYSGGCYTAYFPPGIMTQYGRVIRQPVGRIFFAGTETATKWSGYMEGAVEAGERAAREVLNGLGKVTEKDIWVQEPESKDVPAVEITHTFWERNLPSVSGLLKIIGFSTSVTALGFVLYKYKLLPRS

Row | Compound | DYRK1A inhibition, selectivity (DYRK1A kinase) | UV-induced apoptosis (annexin V positive + annexin V/7-AAD positive cells) vs mock treated cells (U2OS cells [1]) | expression of DREAM target genes (DREAM target genes) | number of the 67 DNA repair genes bound by DREAM that were upregulated (DREAM target genes) | γH2AX amount after UV irradiation vs control cells (U2OS cells [2]) | resistance to MMS (apoptotic cells) (U2OS cells [3]) | proteinuria (Coomassie staining of urine) [4] | apoptosis in photoreceptor cells (TUNEL) (Ercc1−/− mice) | MAOA inhibition [5]
1 | CCN1/C(=C/C(C)=O)Sc2ccc(O)cc21 [INDY, (1Z)-1-(3-ethyl-5-hydroxy-2(3H)-benzothiazoylidene)-2-propanone] | highly selective DYRK1A inhibitor | highly significant reduction in UV-induced apoptosis | upregulation of DREAM target genes | 46 | significantly lower amounts of γH2AX | boosted the resistance to the alkylating agent MMS |  |  | 
2 | COc1ccc2c(c1)[nH]c1c(C)nccc12 [harmine] |  | highly significant reduction in UV-induced apoptosis | upregulation of DREAM target genes | 58 |  | boosted the resistance to the alkylating agent MMS | mitigation of proteinuria | prevented apoptosis in photoreceptor cells | could also inhibit monoamine oxidase A (MAOA)
